Results reported in patent EP4609864A1, “PHARMACEUTICAL COMPOSITION CONTAINING ISOQUINOLINONE COMPOUND, AND PREPARATION METHOD THEREFOR” (Jiangsu Hengrui Pharmaceuticals Co., Ltd., priority 2022, dated 2024).

What was measured:
immune cells in BALF = test: Mouse model of LPS-induced acute pulmonary inflammation: immune cell counts in BALF; assay type: in vivo, BALB/c mouse; conditions: 1.0 mg/kg intratracheal nebulized, 1 h before LPS; BALF 6 h after modeling; vs. model group
Procedure: (§1) The study utilized a BALB/c mouse model of LPS-induced acute pulmonary inflammation to evaluate the inhibitory effect of the compound on pulmonary inflammation based on immune cell counts and TNFα cytokine levels in bronchoalveolar lavage fluid (BALF). The mice were divided into 6 groups, with 8 mice per group, including: a normal control group, a model control group, an RPL554 group (1.0 mg/kg), and low, medium, and high dose groups of compound A (0.3 mg/kg, 1.0 mg/kg, and 3.0 mg/kg). One hour after intratracheal administration of nebulized drugs, the mice were stimulated by nebulized LPS for modeling. Six hours after modeling, BALF was collected from the animals, and the total cells, the neutrophils, and the eosinophils in BALF were counted, along with the measurement of the pro-inflammatory cytokine TNFα level in BALF.

TNFα = test: Mouse model of LPS-induced acute pulmonary inflammation: TNFα level in BALF; assay type: in vivo, BALB/c mouse; conditions: 1.0 mg/kg intratracheal nebulized, 1 h before LPS; BALF 6 h after modeling; vs. model group
Procedure: as §1

[1] = phase II; patients with chronic obstructive pulmonary disease; cited from earlier work

COc1cc2c(cc1OC)-c1c/c(=N\c3c(C)cc(C)cc3C)n(CCNC(N)=O)c(=O)n1CC2 [RPL554, 9,10-dimethoxy-2-(2,4,6-trimethylphenylimino)-3-(N-carbamoyl-2-aminoethyl)-3,4,6,7-tetrahydro-2H-pyrimido[6,1-α]isoquinolin-4-one]
number of eosinophils in BALF (immune cells in BALF): significantly lower
number of neutrophils in BALF (immune cells in BALF): significantly lower
number of total cells in BALF (immune cells in BALF): significantly lower
TNFα level in BALF (TNFα): downward trend
bronchodilation and symptoms [1]: significantly improve bronchodilation and symptoms
tolerability, adverse events [1]: well tolerated
